Where two headings read alike, the source gives them in different places.
Tests used:
[1] = target: T1, PNPLA3 I148M (Homo sapiens, UniProt Q9NST1, I148M); experiment: Western blot anti-PNPLA3, Huh7 PNPLA3 I148M; format: cell-based; set-up: host or cells: Huh7; conditions: 5µM; 24h; two independent Western Blots, Mean +/- Stdev
T1 sequence (Q9NST1 1-481 I148M): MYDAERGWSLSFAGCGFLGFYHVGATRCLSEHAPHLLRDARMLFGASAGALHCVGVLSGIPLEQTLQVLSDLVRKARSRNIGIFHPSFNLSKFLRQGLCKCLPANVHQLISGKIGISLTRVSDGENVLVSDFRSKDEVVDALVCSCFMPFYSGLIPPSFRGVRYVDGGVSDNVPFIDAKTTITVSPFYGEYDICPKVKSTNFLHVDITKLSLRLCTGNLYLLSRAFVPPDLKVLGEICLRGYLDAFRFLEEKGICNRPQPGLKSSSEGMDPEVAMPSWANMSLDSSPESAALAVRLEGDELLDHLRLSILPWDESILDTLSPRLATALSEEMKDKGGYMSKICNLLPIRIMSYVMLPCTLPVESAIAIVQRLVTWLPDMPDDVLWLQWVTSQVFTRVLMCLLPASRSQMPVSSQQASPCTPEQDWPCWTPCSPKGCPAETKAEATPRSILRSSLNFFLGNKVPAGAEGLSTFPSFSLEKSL
Procedure: For SDS-PAGE and subsequent western blotting cells were harvested in 1x lysis buffer (50 mM Tris-Cl, pH 7.5, 150 mM NaCl, 1 mM EDTA, 1% Triton X-100) supplemented with complete mini protease inhibitor cocktail (Roche). Total protein concentration of samples was determined with a Bicinchoninic Acid (BCA) protein assay. Cell lysates were boiled for 10 min at 99°C with 1x NuPAGE LDS Sample Buffer and loaded onto a 4-12% Tris-Glycine SDS-PAGE gel. For immunoblotting proteins were transferred to a nitrocellulose membrane (0.2 μm pore size, Schleicher & Schuell) and blocked with Intercept (PBS) Blocking buffer (Licor), incubated with primary antibodies anti-PNPLA3 (1:500, C-8 Santa Cruz, SC-390252), anti-PNPLA3 (1:1000, Millipore, MABS2174) and anti-HSP90 (1:1000, Cell Signaling, #4877), and subsequently incubated with secondary antibodies IRDye 680 or IRDye 800 (1:2000; LI-COR Biosciences). Infrared signal was detected using the Odyssey imaging system (Licor). […]
a. Huh7, PNPLA3 I148M b. Huh7, PNPLA3 I148M-tagRFP […]
control NUV-244 control NUV-244
Supplemental Fig. 9: Western Blot NUV-244 a. […] PNPLA3 bands at 53kDa (unmodified in a.) or 80 kDa (PNPLA3 I148M-tagRFP) were quantified (signal above local background, normalized to loading control using LICOR Odyssey CLx / Image Studio) on two independent Western Blots and percent of intensity compared to DMSO controls calculated (Mean +/ - Stdev). […]

[2] = test system: Hep3B cells; experiment: Incucyte growth curves, Hep3B; format: cell-based, human; conditions: 1μM or 5μM; compared to DMSO
Procedure: Huh7, Huh7 PNPLA3 I148M, Huh7 PNPLA3, Hep3b and LX-2 cells were seeded at a concentration of 1000 cells/well in 60 μl of growth medium on 384-well microtiter plates (Revvity, Waltham, MA, USA, PhenoPlate 384-well microplate, #6057308) and stored in a 37°C incubator with 5% CO2 and 95% humidity overnight. Next day cells were treated with DMSO as control (1% final concentration) or compound (1μM or 5μM final concentration) and cell density was recorded in the Incucyte® life cell imager (Sartorius, Göttingen, Germany) every 4 hours over a period of 5 days. Growth curves were generated by monitoring confluence over time. Proliferative capacity of PNPLA3 I148M-expressing cells was compared to control cells, and the restoration of proliferative fitness was analyzed.

[3] = target: T2, PNPLA3 I148M-tagRFP (Homo sapiens, UniProt Q9NST1, I148M); experiment: Huh7 PNPLA3 I148M-tagRFP reduction on lipid droplets (high-content imaging); format: cell-based
T2 construct: host or cells: Huh7
T2 sequence (Q9NST1 1-481 I148M): T1 sequence (Q9NST1 1-481 I148M)
Procedure: For dose-response cells were seeded at 4000 c/30 μl per well in 384 well plates (Revvity, Waltham, MA, USA, PhenoPlate 384-well microplate, #6057308) and stored in a 37°C incubator with 5% CO2 and 95% humidity overnight. Compounds, serially diluted, and DMSO controls were added, and cells were incubated for another 24h. Cells were fixed and stained with a mixture of Paraformaldehyde (final 1%, Electron Microscopy Science), BODIPY (final 38 nM, Invitrogen) and Hoechst 33342 (final 2 μg/ml, Biotium) diluted in PBS for 30 min at room temperature in the dark (no wash off).
Confocal images were acquired using the Opera Phenix system (Revvity, USA) with a 10x, 20x or 40x water objective and excitation at 405 nm (Hoechst), 488 nm (BODIPY), and 532 nm (PNPLA3 I148M-tagRFP).
Images were analyzed using Harmony (Revvity) and MetaXpress software (Molecular Devices, USA) to quantify lipid droplet morphology and PNPLA3 I148M-tagRFP intensity.
Assay plates were evaluated based on Z’ scores (>0.6) and signal-to-background ratio (>12) using Genedata Screener® for HTS and Condoseo modules (Genedata, Switzerland). Normalization, quality control, and fitting curves for EC50 determination of tested compounds were performed with Genedata Screener® for high-content screening and Genedata Condoseo modules (Genedata AG, Basel, Switzerland). More than 820K cpds were screened on 791 1536W plates in 11 runs covering three weeks of primary HTS. Automated image analysis routines were set up to quantify the number, morphology and intensity of nuclei, lipid droplets and the intensity of PNPLA3 I148M-tagRFP on lipid droplets. Toxic or autofluorescent compounds were excluded from the hitlist based on nuclear count, area, and intensity measurements as well as lipid droplet staining intensity compared to control cells.

Structure (SMILES): Cc1cccc(Cc2nc(C)c(C(=O)Nc3cc(O)ccc3Cl)s2)c1 [NUV-244]
- PNPLA3 band, percent of intensity compared to DMSO controls [1]: 67+/-12%
- effect on proliferative capacity, Hep3B [2]: no effects
- EC50 ([3]; HTS batch (hit), 24h, two independent determinations, read-out: EC50 Huh7, PNPLA3 I148M-tagRFP reduction): 2.28e-07 ± 3.1e-08 M
- EC50 ([3]; representative dose-response curve, Figure 2D, read-out: EC50 [M] Huh7, PNPLA3-I148M-tagRFP): 2.05e-07 M
- EC50 ([3]; representative dose-response curve, Figure 3B, read-out: EC50 [M] Huh7, PNPLA3 I148M-tagRFP): 3.51e-07 M
- EC50 ([3]; resynthesis, representative curve, Figure 4C, read-out: EC50 [M] Huh7, PNPLA3 I148M-tagRFP intensity on lipid droplets): 3.8e-07 M

Source: paper PMC12049818, “Identification of NUV-244 as a PNPLA3 I148M degrading small molecule” (iScience, 2025)
